Measured values as given in US8729089B2 (Gilead Sciences, Inc., priority 2006, dated 2014).
pEC50: −log10 of the molar value.

Assays:
[1] = system: HCV replicon in human hepatoma Huh-7 cell line; experiment: Anti-HCV replicon assay (EC50, luciferase); assay type: cell-based; conditions: Hepatitis C virus, Huh-7, 72 h
Procedure, shortened: (§1)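 Cytotoxicity (CC50) measured by CellTiter-Glo and antiviral activity (EC50) by luciferase signal from lysed cells, both by luminescence. Replicon-bearing Huh-7 cells, 6000 per well, incubated 3 days at 37 °C with threefold-diluted compound (0.5% DMSO for DMSO-dissolved compounds).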

[2] = CC50 assay (CellTiter-Glo) in Huh-7 HCV replicon cells; assay type: cell-based, human; conditions: human, 3 days incubation, CellTiter-Glo readout
Procedure, shortened: as §1

Row | SMILES | pEC50 [1] | CC50 at 3 days [2]
1 | NS(=O)(=O)c1ccc(CNc2nc(NCC(F)(F)F)c3nc(-c4ccc(Cl)cc4)ccc3n2)cc1 [Example 192, 4-{[6-(4-Chloro-phenyl)-4-(2,2,2-trifluoro-ethylamino)-pyrido[3,2-d]pyrimidin-2-ylamino]-methyl}-benzenesulfonamide] | > 7.00 | 5 to 25 µM
2 | CC(C)N1CCC(NS(=O)(=O)c2cc(-c3ccc4nc(NCc5ccc(S(N)(=O)=O)cc5)nc(NCC(F)(F)F)c4n3)ccc2Cl)CC1 [Example 193, 2-Chloro-N-(1-isopropyl-piperidin-4-yl)-5-[2-(4-sulfamoyl-benzylamino)-4-(2,2,2-trifluoro-ethylamino)-pyrido[3,2-d]pyrimidin-6-yl]-benzenesulfonamide] | > 7.00 | < 5 µM
3 | CC(C)(C)OC(=O)NC1CCN(S(=O)(=O)c2cc(-c3ccc4nc(NCc5ccc(S(N)(=O)=O)cc5)nc(NCC(F)(F)F)c4n3)ccc2Cl)CC1 [Example 194, (1-{2-Chloro-5-[2-(4-sulfamoyl-benzylamino)-4-(2,2,2-trifluoro-ethylamino)-pyrido[3,2-d]pyrimidin-6-yl]-benzenesulfonyl}-piperidin-4-yl)-carbamic acid tert-butyl ester] | > 7.00 | < 5 µM
4 | NS(=O)(=O)c1ccc(CNc2nc(NCC(F)(F)F)c3nc(-c4ccc(Cl)c(S(=O)(=O)NCCN5CCCC5)c4)ccc3n2)cc1 [Example 195, 2-Chloro-N-(2-pyrrolidin-1-yl-ethyl)-5-[2-(4-sulfamoyl-benzylamino)-4-(2,2,2-trifluoro-ethylamino)-pyrido[3,2-d]pyrimidin-6-yl]-benzenesulfonamide] | > 7.00 | < 5 µM
5 | CC(C)N1CCN(S(=O)(=O)c2cc(-c3ccc4nc(NCc5ccc(S(N)(=O)=O)cc5)nc(NCC(F)(F)F)c4n3)ccc2Cl)CC1 [Example 196, 4-{[6-[4-Chloro-3-(4-isopropyl-piperazine-1-sulfonyl)-phenyl]-4-(2,2,2-trifluoro-ethylamino)-pyrido[3,2-d]pyrimidin-2-ylamino]-methyl}-benzenesulfonamide] | > 7.00 | < 5 µM
6 | NS(=O)(=O)c1ccc(CNc2nc(NCC(F)(F)F)c3nc(-c4ccc(Cl)c(S(=O)(=O)N[C@@H]5CCNC5)c4)ccc3n2)cc1 [Example 197, 2-Chloro-N-pyrrolidin-3-yl-5-[2-(4-sulfamoyl-benzylamino)-4-(2,2,2-trifluoro-ethylamino)-pyrido[3,2-d]pyrimidin-6-yl]-benzenesulfonamide] | > 7.00 | < 5 µM
7 | COCCNS(=O)(=O)c1cc(-c2ccc3nc(NCc4ccc(S(N)(=O)=O)cc4)nc(NCC(F)(F)F)c3n2)ccc1Cl [Example 198, 2-Chloro-N-(2-methoxy-ethyl)-5-[2-(4-sulfamoyl-benzylamino)-4-(2,2,2-trifluoro-ethylamino)-pyrido[3,2-d]pyrimidin-6-yl]-benzenesulfonamide] | > 7.00 | 5 to 25 µM
8 | CC(C)(CN1CCCC1)NC(=O)c1ccc(-c2ccc3nc(NCc4ccc(S(N)(=O)=O)cc4)nc(NCC(F)(F)F)c3n2)cc1 [Example 199, N-(1,1-Dimethyl-2-pyrrolidin-1-yl-ethyl)-4-[2-(4-sulfamoyl-benzylamino)-4-(2,2,2-trifluoro-ethylamino)-pyrido[3,2-d]pyrimidin-6-yl]-benzamide] | > 7.00 | < 5 µM
9 | NS(=O)(=O)c1ccc(CNc2nc(NCC(F)(F)F)c3nc(-c4ccc(Cl)c(S(=O)(=O)NC5CCNCC5)c4)ccc3n2)cc1 [Example 200, 2-Chloro-N-piperidin-4-yl-5-[2-(4-sulfamoyl-benzylamino)-4-(2,2,2-trifluoro-ethylamino)-pyrido[3,2-d]pyrimidin-6-yl]-benzenesulfonamide] | > 7.00 | < 5 µM
10 | CC(C)(C)OC(=O)N1CCC(NS(=O)(=O)c2cc(-c3ccc4nc(NCc5ccc(S(N)(=O)=O)cc5)nc(NCC(F)(F)F)c4n3)ccc2Cl)CC1 [Example 201, 4-{2-Chloro-5-[2-(4-sulfamoyl-benzylamino)-4-(2,2,2-trifluoro-ethylamino)-pyrido[3,2-d]pyrimidin-6-yl]-benzenesulfonylamino}-piperidine-1-carboxylic acid tert-butyl ester] | > 7.00 | 5 to 25 µM
11 | NS(=O)(=O)c1ccc(CNc2nc(NCC(F)(F)F)c3nc(-c4ccc(Cl)c(S(N)(=O)=O)c4)ccc3n2)cc1 [Example 202, 2-Chloro-5-[2-(4-sulfamoyl-benzylamino)-4-(2,2,2-trifluoro-ethylamino)-pyrido[3,2-d]pyrimidin-6-yl]-benzenesulfonamide] | > 7.00 | < 5 µM
12 | NS(=O)(=O)c1ccc(CNc2nc(NCC(F)(F)F)c3nc(-c4ccnnc4)ccc3n2)cc1 [Example 203, 4-{[6-Pyridazin-4-yl-4-(2,2,2-trifluoro-ethylamino)-pyrido[3,2-d]pyrimidin-2-ylamino]-methyl}-benzenesulfonamide] | > 7.00 | > 25 µM
13 | CC(C)N1CCN(S(=O)(=O)c2cc(-c3ccc4nc(NCc5ccc(S(N)(=O)=O)cc5)nc(NCC(F)(F)F)c4n3)ccc2F)CC1 [Example 204, 4-{[6-[4-Fluoro-3-(4-isopropyl-piperazine-1-sulfonyl)-phenyl]-4-(2,2,2-trifluoro-ethylamino)-pyrido[3,2-d]pyrimidin-2-ylamino]-methyl}-benzenesulfonamide] | > 7.00 | < 5 µM
14 | CC(C)(C)OC(=O)N1CC[C@@H](NS(=O)(=O)c2cc(-c3ccc4nc(NCc5ccc(S(N)(=O)=O)cc5)nc(NCC(F)(F)F)c4n3)ccc2F)C1 [Example 205, 3-{2-Fluoro-5-[2-(4-sulfamoyl-benzylamino)-4-(2,2,2-trifluoro-ethylamino)-pyrido[3,2-d]pyrimidin-6-yl]-benzenesulfonylamino}-pyrrolidine-1-carboxylic acid tert-butyl ester] | > 7.00 | < 5 µM
15 | CN(CC(F)(F)F)c1nc(NCc2ccc(S(N)(=O)=O)cc2)nc2ccc(-c3ccc(F)cc3)nc12 [Example 206, 4-({6-(4-Fluoro-phenyl)-4-[methyl-(2,2,2-trifluoro-ethyl)-amino]-pyrido[3,2-d]pyrimidin-2-ylamino}-methyl)-benzenesulfonamide] | > 7.00 | < 5 µM
16 | C[C@H](N)C(=O)Nc1ccc(-c2ccc3nc(NCc4ccc(S(N)(=O)=O)cc4)nc(NCC(F)(F)F)c3n2)cc1Cl [Example 207, 2-Amino-N-{2-chloro-4-[2-(4-sulfamoyl-benzylamino)-4-(2,2,2-trifluoro-ethylamino)-pyrido[3,2-d]pyrimidin-6-yl]-phenyl}-propionamide] | > 7.00 | < 5 µM
17 | C[C@H](O)C(=O)Nc1ccc(-c2ccc3nc(NCc4ccc(S(N)(=O)=O)cc4)nc(NCC(F)(F)F)c3n2)cc1Cl [Example 208, N-{2-Chloro-4-[2-(4-sulfamoyl-benzylamino)-4-(2,2,2-trifluoro-ethylamino)-pyrido[3,2-d]pyrimidin-6-yl]-phenyl}-2-hydroxy-propionamide] | > 7.00 | 5 to 25 µM
18 | C[C@H](O)C(=O)Nc1ccc(-c2ccc3nc(NCc4ccc(S(N)(=O)=O)cc4)nc(NCC(F)(F)F)c3n2)cc1F [Example 209, N-{2-Fluoro-4-[2-(4-sulfamoyl-benzylamino)-4-(2,2,2-trifluoro-ethylamino)-pyrido[3,2-d]pyrimidin-6-yl]-phenyl}-2-hydroxy-propionamide] | > 7.00 | < 5 µM
19 | C[C@H](O)C(=O)Nc1ccc(-c2ccc3nc(NCc4ccc(S(N)(=O)=O)cc4)nc(NCC(F)(F)F)c3n2)cc1 [Example 210, 2-Hydroxy-N-{4-[2-(4-sulfamoyl-benzylamino)-4-(2,2,2-trifluoro-ethylamino)-pyrido[3,2-d]pyrimidin-6-yl]-phenyl}-propionamide] | > 7.00 | > 25 µM
20 | COC(=O)Nc1ccc(-c2ccc3nc(NCc4ccc(S(N)(=O)=O)cc4)nc(NCC(F)(F)F)c3n2)cc1 [Example 211, {4-[2-(4-Sulfamoyl-benzylamino)-4-(2,2,2-trifluoro-ethylamino)-pyrido[3,2-d]pyrimidin-6-yl]-phenyl}-carbamic acid methyl ester] | > 7.00 | 5 to 25 µM
21 | N#Cc1ccc(-c2ccc3nc(NCc4ccc(S(N)(=O)=O)cc4)nc(NCC(F)(F)F)c3n2)cc1 [Example 212, 4-{[6-(4-Cyano-phenyl)-4-(2,2,2-trifluoro-ethylamino)-pyrido[3,2-d]pyrimidin-2-ylamino]-methyl}-benzenesulfonamide] | > 7.00 | 5 to 25 µM
22 | NS(=O)(=O)c1ccc(CNc2nc(NCC(F)(F)F)c3nc(-c4ccc(F)c(S(=O)(=O)N[C@@H]5CCNC5)c4)ccc3n2)cc1 [Example 213, 2-Fluoro-N-pyrrolidin-3-yl-5-[2-(4-sulfamoyl-benzylamino)-4-(2,2,2-trifluoro-ethylamino)-pyrido[3,2-d]pyrimidin-6-yl]-benzenesulfonamide] | > 7.00 | < 5 µM
23 | NS(=O)(=O)c1ccc(CNc2nc(NCC(F)(F)F)c3nc(-c4ccc(F)c(S(=O)(=O)NC5CCNCC5)c4)ccc3n2)cc1 [Example 214, 2-Fluoro-N-piperidin-4-yl-5-[2-(4-sulfamoyl-benzylamino)-4-(2,2,2-trifluoro-ethylamino)-pyrido[3,2-d]pyrimidin-6-yl]-benzenesulfonamide] | > 7.00 | 5 to 25 µM
24 | CC(C)(C)OC(=O)N1CCC(NS(=O)(=O)c2cc(-c3ccc4nc(NCc5ccc(S(N)(=O)=O)cc5)nc(NCC(F)(F)F)c4n3)ccc2F)CC1 [Example 215, 4-{2-Fluoro-5-[2-(4-sulfamoyl-benzylamino)-4-(2,2,2-trifluoro-ethylamino)-pyrido[3,2-d]pyrimidin-6-yl]-benzenesulfonylamino}-piperidine-1-carboxylic acid tert-butyl ester] | > 7.00 | 5 to 25 µM
